Source: patent US20230190717A1, “P38 GAMMA INHIBITORS AND METHOD OF USE THEREOF” (City of Hope, priority 2017, published 2023)

Assays:
Type in all cases: cell-based, human
K-562 = experiment: NCI-60 cytotoxicity, K-562; conditions: K-562 (CML), 72 h
Protocol: (§1) Briefly, human NCI-60 cancer cell lines were counted with a Vi-CELL Cell Viability Analyzer (Beckman Coulter), resuspended in RPMI-1640 medium containing 10% FBS and 1% penicillin/streptomycin and dispensed in wells of 96-well microplates (3000 cells per well for solid tumor and 5000 per well for blood tumor cells) using an epMotion 5075 liquid handler (Eppendorf) under a sterile condition, followed by incubation overnight at 37° C. in 5% (v/v) CO2. Cells were exposed to compounds in a dose-dependent manner for 72 h. An MTS dye (20 uL per well) was added to each well. Cell viability was determined by tetrazolium conversion to its […] dye. […] Each experiment was performed in duplicate. […] H9 cells are more sensitive to drugs, therefore instead of 72 hours, we choose 48 hour the incubation time for H9 cells.
(§2) IC50 values were determined using […] software (Biosoft).

RPMI-8226 = experiment: NCI-60 cytotoxicity, RPMI-8226; conditions: RPMI-8226 (MM), 72 h
Protocol: as §1, §2

SR = experiment: NCI-60 cytotoxicity, SR; conditions: SR (Leukemia), 72 h
Protocol: as §1, §2

NCI-H322M = experiment: NCI-60 cytotoxicity, NCI-H322M; conditions: NCI-H322M (Lung), 72 h
Protocol: as §1, §2

NCI-H23 = experiment: NCI-60 cytotoxicity, NCI-H23; conditions: NCI-H23 (Lung), 72 h
Protocol: as §1, §2

A549 = experiment: NCI-60 cytotoxicity, A549; conditions: A549 (Lung), 72 h
Protocol: as §1, §2

HCT-15 = experiment: NCI-60 cytotoxicity, HCT-15; conditions: HCT-15 (Colon), 72 h
Protocol: as §1, §2

HCT-116 = experiment: NCI-60 cytotoxicity, HCT-116; conditions: HCT-116 (Colon), 72 h
Protocol: as §1, §2

HCC-2998 = experiment: NCI-60 cytotoxicity, HCC-2998; conditions: HCC-2998 (Colon), 72 h
Protocol: as §1, §2

HT29 = experiment: NCI-60 cytotoxicity, HT29; conditions: HT29 (Colon), 72 h
Protocol: as §1, §2

OVCAR-3 = experiment: NCI-60 cytotoxicity, OVCAR-3; conditions: OVCAR-3 (Ovarian), 72 h
Protocol: as §1, §2

SKOV3 = experiment: NCI-60 cytotoxicity, SKOV3; conditions: SKOV3 (Ovarian), 72 h
Protocol: as §1, §2

OVCAR-8 = experiment: NCI-60 cytotoxicity, OVCAR-8; conditions: OVCAR-8 (Ovarian), 72 h
Protocol: as §1, §2

UACC257 = experiment: NCI-60 cytotoxicity, UACC257; conditions: UACC257 (Melanoma), 72 h
Protocol: as §1, §2

LOX IMVI = experiment: NCI-60 cytotoxicity, LOX IMVI; conditions: LOX IMVI (Melanoma), 72 h
Protocol: as §1, §2

SK-MEL-5 = experiment: NCI-60 cytotoxicity, SK-MEL-5; conditions: SK-MEL-5 (Melanoma), 72 h
Protocol: as §1, §2

UACC-62 = experiment: NCI-60 cytotoxicity, UACC-62; conditions: UACC-62 (Melanoma), 72 h
Protocol: as §1, §2

MDA-MB-435 = experiment: NCI-60 cytotoxicity, MDA-MB-435; conditions: MDA-MB-435 (Melanoma), 72 h
Protocol: as §1, §2

BT-S49 = experiment: NCI-60 cytotoxicity, BT-S49; conditions: BT-S49 (Breast), 72 h
Protocol: as §1, §2

MDA-MB-231 = experiment: NCI-60 cytotoxicity, MDA-MB-231; conditions: MDA-MB-231 (Breast), 72 h
Protocol: as §1, §2

HS 578T = experiment: NCI-60 cytotoxicity, HS 578T; conditions: HS 578T (Breast), 72 h
Protocol: as §1, §2

MDA-MB-468 = experiment: NCI-60 cytotoxicity, MDA-MB-468; conditions: MDA-MB-468 (Breast), 72 h
Protocol: as §1, §2

SF-539 = experiment: NCI-60 cytotoxicity, SF-539; conditions: SF-539 (CNS), 72 h
Protocol: as §1, §2

SF-268 = experiment: NCI-60 cytotoxicity, SF-268; conditions: SF-268 (CNS), 72 h
Protocol: as §1, §2

SF-295 = experiment: NCI-60 cytotoxicity, SF-295; conditions: SF-295 (CNS), 72 h
Protocol: as §1, §2

SNB-19 = experiment: NCI-60 cytotoxicity, SNB-19; conditions: SNB-19 (CNS), 72 h
Protocol: as §1, §2

SNB-75 = experiment: NCI-60 cytotoxicity, SNB-75; conditions: SNB-75 (CNS), 72 h
Protocol: as §1, §2

UO31 = experiment: NCI-60 cytotoxicity, UO31; conditions: UO31 (Renal), 72 h
Protocol: as §1, §2

786-0 = experiment: NCI-60 cytotoxicity, 786-0; conditions: 786-0 (Renal), 72 h
Protocol: as §1, §2

A498 = experiment: NCI-60 cytotoxicity, A498; conditions: A498 (Renal), 72 h
Protocol: as §1, §2

CAKI-1 = experiment: NCI-60 cytotoxicity, CAKI-1; conditions: CAKI-1 (Renal), 72 h
Protocol: as §1, §2

TK-10 = experiment: NCI-60 cytotoxicity, TK-10; conditions: TK-10 (Renal), 72 h
Protocol: as §1, §2

DU-145 = experiment: NCI-60 cytotoxicity, DU-145; conditions: DU-145 (Prostate), 72 h
Protocol: as §1, §2

Cc1ccc([N+](=O)[O-])cc1S(=O)(=O)N(C)/N=C/c1cnc2ccc(Br)cn12 [Compound 1]
IC50 (K-562; Homo sapiens, K562): 0.416 µM
IC50 (RPMI-8226; Homo sapiens): 0.077 µM
IC50 (SR; Homo sapiens): < 0.001 µM
IC50 (NCI-H322M; Homo sapiens): 1.5 µM
IC50 (NCI-H23; Homo sapiens): > 10 µM
IC50 (A549; Homo sapiens): 2.66 µM
IC50 (HCT-15; Homo sapiens): 0.008 µM
IC50 (HCT-116; Homo sapiens): 0.001 µM
IC50 (HCC-2998; Homo sapiens): > 10 µM
IC50 (HT29; Homo sapiens, HT-29): 0.087 µM
IC50 (OVCAR-3; Homo sapiens): 0.071 µM
IC50 (SKOV3; Homo sapiens, SK-OV-3): 0.291 µM
IC50 (OVCAR-8; Homo sapiens): 0.059 µM
IC50 (UACC257; Homo sapiens, UACC-257): 2.32 µM
IC50 (LOX IMVI; Homo sapiens): 0.073 µM
IC50 (SK-MEL-5; Homo sapiens): > 10 µM
IC50 (UACC-62; Homo sapiens): 0.362 µM
IC50 (MDA-MB-435; Homo sapiens): > 10 µM
IC50 (BT-S49; Homo sapiens): < 0.001 µM
IC50 (MDA-MB-231; Homo sapiens): 0.466 µM
IC50 (HS 578T; Homo sapiens): 0.586 µM
IC50 (MDA-MB-468; Homo sapiens): 0.103 µM
IC50 (SF-539; Homo sapiens): 0.177 µM
IC50 (SF-268; Homo sapiens): 2.23 µM
IC50 (SF-295; Homo sapiens): 0.141 µM
IC50 (SNB-19; Homo sapiens): 0.385 µM
IC50 (SNB-75; Homo sapiens): 0.435 µM
IC50 (UO31; Homo sapiens, UO-31): 0.115 µM
IC50 (786-0; Homo sapiens): 0.008 µM
IC50 (A498; Homo sapiens): 0.027 µM
IC50 (CAKI-1; Homo sapiens): 0.35 µM
IC50 (TK-10; Homo sapiens): 0.805 µM
IC50 (DU-145; Homo sapiens): 0.001 µM

O=C1NC(=NCc2cccs2)S/C1=C\c1ccc2ncccc2c1 [Compound A10]
IC50 (K-562): > 10 µM
IC50 (RPMI-8226): 9 µM
IC50 (SR): 0.372 µM
IC50 (NCI-H322M): > 10 µM
IC50 (NCI-H23): > 10 µM
IC50 (A549): > 10 µM
IC50 (HCT-15): 3.84 µM
IC50 (HCT-116): 3.2 µM
IC50 (HCC-2998): > 10 µM
IC50 (HT29): > 10 µM
IC50 (OVCAR-3): > 10 µM
IC50 (SKOV3): > 10 µM
IC50 (OVCAR-8): > 10 µM
IC50 (UACC257): > 10 µM
IC50 (LOX IMVI): 4.4 µM
IC50 (SK-MEL-5): > 10 µM
IC50 (UACC-62): > 10 µM
IC50 (MDA-MB-435): 6.6 µM
IC50 (BT-S49): 4.78 µM
IC50 (MDA-MB-231): > 10 µM
IC50 (HS 578T): 5.83 µM
IC50 (MDA-MB-468): 6.97 µM
IC50 (SF-539): 2.55 µM
IC50 (SF-268): > 10 µM
IC50 (SF-295): > 10 µM
IC50 (SNB-19): > 10 µM
IC50 (SNB-75): > 10 µM
IC50 (UO31): > 10 µM
IC50 (786-0): 7.77 µM
IC50 (A498): > 10 µM
IC50 (CAKI-1): > 10 µM
IC50 (TK-10): > 10 µM
IC50 (DU-145): 1.38 µM

O=C1NCCc2[nH]c(-c3ccncc3)cc21 [Compound A11]
IC50 (K-562): > 10 µM
IC50 (RPMI-8226): > 10 µM
IC50 (SR): 0.286 µM
IC50 (NCI-H322M): > 10 µM
IC50 (NCI-H23): > 10 µM
IC50 (A549): > 10 µM
IC50 (HCT-15): 2.54 µM
IC50 (HCT-116): 1.26 µM
IC50 (HCC-2998): > 10 µM
IC50 (HT29): 5.04 µM
IC50 (OVCAR-3): 2.52 µM
IC50 (SKOV3): > 10 µM
IC50 (OVCAR-8): 3.6 µM
IC50 (UACC257): > 10 µM
IC50 (LOX IMVI): 3.58 µM
IC50 (SK-MEL-5): > 10 µM
IC50 (UACC-62): 6.12 µM
IC50 (MDA-MB-435): > 10 µM
IC50 (BT-S49): 0.705 µM
IC50 (MDA-MB-231): > 10 µM
IC50 (HS 578T): > 10 µM
IC50 (MDA-MB-468): 1.77 µM
IC50 (SF-539): 3.68 µM
IC50 (SF-268): > 10 µM
IC50 (SF-295): 7.64 µM
IC50 (SNB-19): > 10 µM
IC50 (SNB-75): 6.14 µM
IC50 (UO31): 4.03 µM
IC50 (786-0): 9.3 µM
IC50 (A498): > 10 µM
IC50 (CAKI-1): > 10 µM
IC50 (TK-10): > 10 µM
IC50 (DU-145): 2.26 µM
